Assay results published in patent US20240092774A1, “HETEROAROMATIC COMPOUNDS AND USES THEREOF” (HUTCHISON MEDIPHARMA LIMITED, priority 2020, published 2024).

Key:
[1] = molecular target: Recombinant human CSF1R kinase (Homo sapiens (Human), UniProt P07333); assay: Measurement of CSF1R kinase activity at molecular level (Z-LYTE); assay type: biochemical; details: Z-LYTE Tyr 1 peptide
Experimental: Invitrogen, PV3227; • Development reagent B: Invitrogen, PV3295; • Development buffer: Invitrogen. P3127; • Stopping solution: Invitrogen, P3094; • Recombinant human CSF1R kinase: Invitrogen, P[…]; • 384 well plate, black: Corning. 3575; • Envision: Perkin Elmer. 2. […] The test compound was diluted in gradient to 4-fold the reaction concentration and the concentration of DMSO was kept at 8%. […] The mixture was mixed gently with a pipette. • 4) A phosphorylated peptide substrate solution (PP solution): 0.4 μL of Z-LYTETM Tyr1 phosphorylated peptide substrate was added to 99.6 μl of 1.33× kinase buffer. • 5) ATP solution: 10 mM of ATP was diluted to 760 μM with 1.33× kinase buffer to prepare ATP solution. • 6) Development solution: Development reagent B was diluted with Development buffer at a ratio of 1:200. 3. […] 2.5 μL of 4× test compound was added to each reaction well of the 384 plate, and the corresponding volume of 8% DMSO was added to the control well. The plate was placed on ice. […] After adding the reaction components, the 384-well plate was sealed and incubated at 25-30° C. for 1 h in dark. 2) Development Reaction 5 μL of Development solution was added to each well, sealed and incubated at 25-30° C. for another 1 h in dark. 3) Reaction Stopping and Plate Reading 5 μL of stopping solution was added to each well. The Coumarin value (excitation at 400 nm, emission at 445 nm) and Fluorescein value (excitation at 400 nm, emission at 520 nm) were measured, respectively. 4. […] Coumarin emission read-out (445 nm)/Fluorescein emission read-out (520 nm); • C3 445 nm: 100% phosphorylated Coumarin emission read-out; • C3 520 nm: 100% phosphorylated Fluorescein emission read-out; • C1 445 nm: 0% phosphorylated Coumarin emission read-out; • C1 520 nm: 0% phosphorylated Fluorescein emission read-out. […] 5. IC50 values: calculated by using software XL-FitTM (version 5.3) supplied by ID Business Solutions (Guildford, UK), which is an additional software to Microsoft Excel.

[2] = molecular target: CSF1R phosphorylation in THP-1 cells (Homo sapiens (Human), UniProt P07333); assay: Detection of CSF1R phosphorylation activity at cell level (p-CSF1R ELISA, M-CSF stimulated THP-1 cells); assay type: cell-based; details: THP-1 cells, M-CSF stimulation, p-CSF1R ELISA; read-out: IC50
Experimental: THP-1 (ATCC), human acute monocytic leukemia cells.
3. Treatment of cells and preparation of lysis buffer
5 μL. of the diluted compound was added to the 50 μL cell culture system, the culture was cultured in a 5% CO2, 37° C. cell incubator for 60 min, 300 ng/mL of M-CSF was added to the cells, and the mixture was stimulated in the 37° C. cell incubator for 1 min, added 50 μL of cell lysis buffer, and stored in a refrigerator at −80° C.
100 μL/well of the p-CSF1R capture antibody diluted to 0.8 μg/mL with PBS was added to the ELISA plate, and the plate was coated on a shaker at room temperature overnight. The culture was washed with PBST, and then added blocking solution and incubated at room temperature for 2 h. The culture was washed with PBST, added 90 μL of cell lysis buffer, and incubated on a shaker at 25° C. for 2 h. The plate was washed with PBST three times, added 100 μL of anti-p-tyrosine-HRP detection antibody diluted with 0.1% PBS-BSA diluent, and incubated on a shaker at 25° C. for 2 h. The plate was washed with PBST washing liquid, added 100 μL of chromogenic substrate and incubated at room temperature for 10-20 min. The reaction was stopped by adding 50 μL of 2N H2SO4. The optical density signal (450/570 nm) of each well was detected in Labsystems Multiskan K3 or Envision.
wherein • Drug-treated well read-out: indicating the optical density signal of a cell well with the test compound treatment. • Background read-out: indicating the optical density signal of a well without cells but with cell lysis buffer. • Cell well read-out: indicating the optical density signal of a cell well not treated with the compound.
6. Calculation of IC50: obtained by using XL-Fit 5.3 software, […]

Sequence of CSF1R phosphorylation in THP-1 cells (P07333 20-972): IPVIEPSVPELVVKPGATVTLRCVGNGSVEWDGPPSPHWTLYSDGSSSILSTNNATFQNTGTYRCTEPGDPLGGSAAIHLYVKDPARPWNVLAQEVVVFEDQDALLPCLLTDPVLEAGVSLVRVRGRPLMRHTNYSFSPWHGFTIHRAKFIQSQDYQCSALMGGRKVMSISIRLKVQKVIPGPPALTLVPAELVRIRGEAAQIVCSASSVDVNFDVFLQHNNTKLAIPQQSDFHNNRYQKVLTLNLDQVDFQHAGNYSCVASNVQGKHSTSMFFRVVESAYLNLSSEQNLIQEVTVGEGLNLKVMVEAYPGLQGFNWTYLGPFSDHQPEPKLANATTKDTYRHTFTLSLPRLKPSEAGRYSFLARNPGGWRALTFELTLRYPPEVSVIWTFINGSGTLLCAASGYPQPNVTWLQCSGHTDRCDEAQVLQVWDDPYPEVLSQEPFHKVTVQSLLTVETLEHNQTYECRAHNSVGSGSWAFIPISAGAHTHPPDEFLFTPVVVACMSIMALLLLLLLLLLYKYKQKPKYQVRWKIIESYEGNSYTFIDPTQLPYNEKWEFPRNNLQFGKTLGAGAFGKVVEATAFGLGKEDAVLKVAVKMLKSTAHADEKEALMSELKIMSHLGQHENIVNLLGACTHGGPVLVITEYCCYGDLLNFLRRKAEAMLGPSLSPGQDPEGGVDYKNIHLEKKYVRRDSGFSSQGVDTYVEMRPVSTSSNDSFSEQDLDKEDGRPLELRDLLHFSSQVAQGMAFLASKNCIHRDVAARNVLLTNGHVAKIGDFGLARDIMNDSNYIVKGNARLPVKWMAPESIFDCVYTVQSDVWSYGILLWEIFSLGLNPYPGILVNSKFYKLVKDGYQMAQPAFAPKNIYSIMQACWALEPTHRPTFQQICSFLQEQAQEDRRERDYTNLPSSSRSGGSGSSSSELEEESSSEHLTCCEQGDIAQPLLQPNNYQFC
Sequence of Recombinant human CSF1R kinase (P07333 20-972): as above

SMILES | IC50 [1] | IC50 [2]
COc1ccc([C@@H]2COc3cc(Oc4ccc5nccc(=O)n5c4)cnc3O2)cn1 [Compound 85] | 17 nM | 154 nM
COc1ccc([C@@H]2COc3cc(Oc4ccc5ncc(C)c(=O)n5c4)cnc3O2)cn1 [Compound 86] | 8 nM | 56 nM
